# Patent US20260070945A1, “MACROCYCLIC IMMUNOMODULATORS” (Bristol-Myers Squibb Company, priority 2022, published 2026)
# *1 amine or outer side, *2 acyl side, *3 side chain or, on linkers, in order; H or OH if unused. Where a SMILES comes first, the peptide text is derived from it. Bridges are numbered along the chain shown (N, C = ends). [ ]: non-standard residue; d: D form. The star is where a group is joined. ξ: configuration not given here. Phe(3-CF3) = N[C@@H](Cc1cccc(C(F)(F)F)c1)C(=O)O; Phe(4-COOH) = N[C@@H](Cc1ccc(C(=O)O)cc1)C(=O)O; Bip = N[C@@H](Cc1ccc(-c2ccccc2)cc1)C(=O)O; Phe(3-Me) = Cc1cccc(C[C@H](N)C(=O)O)c1; γGlu = O=C(O)[C@H](CCC(=O)[*:2])N[*:1]; NH(CH2)12COOH = O=C(O)CCCCCCCCCCCCN*; ξγGlu = O=C(O)C(CCC(=O)[*:2])N[*:1]; Val(3-OH) = CC(C)(O)[C@H](N)C(=O)O; 3Pal = N[C@@H](Cc1cccnc1)C(=O)O; 4Pal = N[C@@H](Cc1ccncc1)C(=O)O; Cha = N[C@@H](CC1CCCCC1)C(=O)O; Cit = NC(=O)NCCC[C@H](N)C(=O)O; Ile(3ξ) = CCC(C)[C@H](N)C(=O)O; Thr(3ξ) = CC(O)[C@H](N)C(=O)O; 12Ado = NCCCCCCCCCCCC(=O)O; Carboxymethyl = O=C(O)C*; NMeA = CN[C@@H](C)C(=O)O; Orn = NCCC[C@H](N)C(=O)O; Aun = NCCCCCCCCCCC(=O)O; Dab = NCC[C@H](N)C(=O)O; Dap = NC[C@H](N)C(=O)O; AEEA = NCCOCCOCC(=O)O; Ac3c = NC1(C(=O)O)CC1; Sar = CNCC(=O)O
# Molecular target: T1, PD-1/PD-L1 interaction (PE-labeled human PD-L1-Ig binding to Jurkat cell line over-expressing human PD-1) (Homo sapiens, UniProt Q15116)
# T1 construct: expressed in transfected cells; host or cells: Jurkat
# T1 sequence (Q15116 25-288): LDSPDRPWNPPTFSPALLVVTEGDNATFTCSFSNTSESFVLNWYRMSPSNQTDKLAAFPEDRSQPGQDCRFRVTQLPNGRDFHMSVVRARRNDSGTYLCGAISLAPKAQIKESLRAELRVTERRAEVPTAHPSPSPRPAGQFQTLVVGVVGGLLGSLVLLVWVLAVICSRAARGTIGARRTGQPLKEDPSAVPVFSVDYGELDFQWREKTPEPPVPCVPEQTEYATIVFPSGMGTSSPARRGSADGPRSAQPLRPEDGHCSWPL
# Experiment: Jurkat-PD-1 Cell Binding High-Content Screening Assay (CBA)
# Conditions: Jurkat-hPD-1 cells, PE-labeled PD-L1-Ig 20 nM final; read-out: Jurkat HPD1 PDL1 IC50
# Method in brief: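 High-content imaging read-out of PE-PD-L1-Ig binding (20 nM final, 1 h) to Jurkat-hPD-1 cells, after 2 h compound exposure at 37 °C in DMEM with 10% FCS. Nuclei counterstained with Hoechst 33342 after paraformaldehyde fixation.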
row,Structure (SMILES),IC50
1,Cc1cccc(C[C@@H]2NC(=O)[C@H](CC(=O)O)NC(=O)[C@H](Cc3cccnc3)NC(=O)[C@H](CC(N)=O)NC(=O)CSC[C@@H](C(=O)N[C@@H](CCN)C(=O)NCCCCCCCCCCC(=O)O)NC(=O)[C@H]([C@@H](C)O)NC(=O)[C@H](C(C)C)NC(=O)[C@H](CC3CCCCC3)NC(=O)[C@H](CCN)NC(=O)[C@@H](CC(C)C)NC(=O)[C@H](C)N(C)C(=O)[C@H](Cc3ccc(O)cc3)NC(=O)[C@H](Cc3ccc(-c4ccccc4)cc3)NC(=O)[C@H](C(C)C)NC2=O)c1 [Example 1323] ({CH2CO}-N[3Pal]D[Phe(3-Me)]V[Bip]Y[NMeA][dL][Dab][Cha]VTC[Dab][Aun]-OH; thioether N-14),99.4 nM
2,CC(=O)NCCCC[C@@H]1NC(=O)[C@H](C(C)C)NC(=O)[C@H](CC2CCCCC2)NC(=O)[C@H](CCN)NC(=O)[C@@H](CC(C)C)NC(=O)[C@H](C)N(C)C(=O)[C@H](Cc2ccc(O)cc2)NC(=O)[C@H](Cc2ccc(-c3ccccc3)cc2)NC(=O)[C@H](C(C)C)NC(=O)[C@H](Cc2cccc(C)c2)NC(=O)[C@H](CC(=O)O)NC(=O)[C@H](Cc2ccc(OCC(=O)O)cc2)NC(=O)[C@H](CC(N)=O)NC(=O)CSC[C@@H](C(=O)N(C)CC(=O)NCCCCCCCCCCC(=O)O)NC1=O [Example 2271] ({CH2CO}-NY(Carboxymethyl)D[Phe(3-Me)]V[Bip]Y[NMeA][dL][Dab][Cha]VK(Ac)C[Sar][Aun]-OH; thioether N-14),260 nM
3,CCC(C)[C@@H]1NC(=O)[C@H](Cc2ccc(-c3ccccc3)cc2)NC(=O)[C@H](C(C)C)NC(=O)[C@H](Cc2c[nH]c3ccccc23)NC(=O)[C@H](CC(=O)O)NC(=O)[C@H](Cc2ccc(OCC(=O)O)cc2)NC(=O)[C@H](C(C)O)NC(=O)CSC[C@@H](C(=O)N[C@@H](CCCN)C(=O)N[C@@H](CCC(=O)NCCCCCCCCCCCC(=O)O)C(=O)O)NC(=O)[C@H](CO)NC(=O)[C@H](C(C)C)NC(=O)[C@H](CC2CCCCC2)NC(=O)[C@H](CCN)NC(=O)[C@@H](CC(C)C)NC(=O)[C@H](C)N(C)C1=O (stereo partly drawn) [Example 2047] ({CH2CO}-[Thr(3ξ)]Y(Carboxymethyl)DWV[Bip][Ile(3ξ)][NMeA][dL][Dab][Cha]VSC[Orn][γGlu][12Ado]-OH; thioether N-14),35.8 nM
4,Cc1cccc(C[C@@H]2NC(=O)[C@H](CC(=O)O)NC(=O)[C@H](Cc3ccc(C(=O)O)cc3)NC(=O)[C@H](Cc3ccc(OCC(=O)O)cc3)NC(=O)CSC[C@@H](C(=O)NCCCCCCCCCCC(=O)O)NC(=O)[C@H](C(C)O)NC(=O)[C@H](C(C)C)NC(=O)[C@H](CC3CCCCC3)NC(=O)[C@H](CCN)NC(=O)[C@@H](CC(C)C)NC(=O)[C@H](C)N(C)C(=O)[C@H](Cc3ccc(O)cc3)NC(=O)[C@H](Cc3ccc(-c4ccccc4)cc3)NC(=O)[C@H](CC(C)C)NC2=O)c1 (stereo partly drawn) [Example 2329] ({CH2CO}-Y(Carboxymethyl)[Phe(4-COOH)]D[Phe(3-Me)]L[Bip]Y[NMeA][dL][Dab][Cha]V[Thr(3ξ)]C[Aun]-OH; thioether N-14),195 nM
5,Cc1cccc(C[C@@H]2NC(=O)[C@H](CC(=O)O)NC(=O)[C@H](Cc3ccc(OCC(=O)O)cc3)NC(=O)[C@H](CCN)NC(=O)CSC[C@@H](C(=O)N[C@@H](CCN)C(=O)NCCCCCCCCCCC(=O)O)NC(=O)[C@H](CO)NC(=O)[C@H](C(C)(C)O)NC(=O)[C@H](CC3CCCCC3)NC(=O)[C@H](CCN)NC(=O)[C@@H](CC(C)C)NC(=O)[C@H](C)N(C)C(=O)[C@H](Cc3ccc(OCC(=O)O)cc3)NC(=O)[C@H](Cc3ccc(-c4ccccc4)cc3)NC(=O)[C@H](Cc3cccnc3)NC2=O)c1 [Example 1305] ({CH2CO}-[Dab]Y(Carboxymethyl)D[Phe(3-Me)][3Pal][Bip]Y(Carboxymethyl)[NMeA][dL][Dab][Cha][Val(3-OH)]SC[Dab][Aun]-OH; thioether N-14),24.8 nM
6,CC(=O)NCCCC[C@@H]1NC(=O)[C@H](Cc2ccc(-c3ccccc3)cc2)NC(=O)[C@H](C(C)C)NC(=O)[C@H](Cc2cccc(C)c2)NC(=O)[C@H](CC(=O)O)NC(=O)[C@H](Cc2ccc(OCC(=O)O)cc2)NC(=O)[C@H](CCCNC(=N)N)NC(=O)CSC[C@@H](C(=O)NCCOCCOCC(=O)NCCCCCCCCCCC(=O)O)NC(=O)[C@H](C(C)O)NC(=O)[C@H](C(C)C)NC(=O)[C@H](CC2CCCCC2)NC(=O)[C@H](CCN)NC(=O)[C@@H](CC(C)C)NC(=O)[C@H](C)N(C)C1=O (stereo partly drawn) [Example 2289] ({CH2CO}-RY(Carboxymethyl)D[Phe(3-Me)]V[Bip]K(Ac)[NMeA][dL][Dab][Cha]V[Thr(3ξ)]C[AEEA][Aun]-OH; thioether N-14),7.5 nM

# Further lines, results first:
row,IC50,Structure (SMILES)
1,49.5 nM,Cc1cccc(C[C@@H]2NC(=O)[C@H](CC(=O)O)NC(=O)[C@H](Cc3ccc(C(=O)O)cc3)NC(=O)[C@H](Cc3ccc(OCC(=O)O)cc3)NC(=O)CSC[C@@H](C(=O)NCC(=O)N[C@@H](CCC(=O)O)C(=O)NCCCCCCCCCCC(=O)O)NC(=O)[C@H](CO)NC(=O)[C@H](C(C)C)NC(=O)[C@H](CC(C)C)NC(=O)[C@H](CC(N)=O)NC(=O)[C@@H](CC(C)C)NC(=O)[C@H](C)N(C)C(=O)[C@H](C(C)C)NC(=O)[C@H](Cc3ccc(-c4ccccc4)cc3)NC(=O)[C@H](CC(C)C)NC2=O)c1 [Example 1005] ({CH2CO}-Y(Carboxymethyl)[Phe(4-COOH)]D[Phe(3-Me)]L[Bip]V[NMeA][dL]NLVSCGE[Aun]-OH; thioether N-14)
2,14.8 nM,COC[C@@H]1NC(=O)CSC[C@@H](C(=O)N[C@@H](CCN)C(=O)NCCOCCOCC(=O)NC(CCC(=O)NCCOCCOCC(=O)NCCCCCCCCCCCCC(=O)O)C(=O)O)NC(=O)[C@H](CCCCNC(C)=O)NC(=O)[C@H](C(C)(C)O)NC(=O)[C@H](CC2CCCCC2)NC(=O)[C@H](CCN)NC(=O)[C@@H](CC(C)C)NC(=O)[C@H](C)N(C)C(=O)[C@H](CCCNC(N)=O)NC(=O)[C@H](Cc2ccc(-c3ccccc3)cc2)NC(=O)[C@H](Cc2ccc(C(=O)O)cc2)NC(=O)[C@H](Cc2cccc(C(F)(F)F)c2)NC(=O)[C@H](CC(=O)O)NC(=O)[C@H](Cc2ccc(OCC(=O)O)cc2)NC1=O (stereo partly drawn) [Example 1168] ({CH2CO}-S(Me)Y(Carboxymethyl)D[Phe(3-CF3)][Phe(4-COOH)][Bip][Cit][NMeA][dL][Dab][Cha][Val(3-OH)]K(Ac)C[Dab][AEEA][ξγGlu][AEEA]-{NH(CH2)12COOH}; thioether N-14)
3,16.6 nM,Cc1cccc(C[C@@H]2NC(=O)[C@H](CC(=O)O)NC(=O)[C@H](Cc3ccc(OCC(=O)O)cc3)NC(=O)[C@H](CN)NC(=O)CSC[C@@H](C(=O)N[C@@H](CCN)C(=O)NCCCCCCCCCCC(=O)O)NC(=O)[C@H](CO)NC(=O)[C@H](C(C)C)NC(=O)[C@H](CC3CCCCC3)NC(=O)[C@H](CCN)NC(=O)[C@@H](CC(C)C)NC(=O)[C@H](C)N(C)C(=O)[C@H](Cc3ccc(OCC(=O)O)cc3)NC(=O)[C@H](Cc3ccc(-c4ccccc4)cc3)NC(=O)[C@H](C(C)C)NC2=O)c1 [Example 1261] ({CH2CO}-[Dap]Y(Carboxymethyl)D[Phe(3-Me)]V[Bip]Y(Carboxymethyl)[NMeA][dL][Dab][Cha]VSC[Dab][Aun]-OH; thioether N-14)

# Same assay, conditions: PE-labeled PD-L1-Ig 20 nM final, Jurkat-hPD-1 cells; read-out: Jurkat HPD1 PDL1 IC50
row,IC50,Structure (SMILES)
1,0.3 nM,Cc1cccc(C[C@@H]2NC(=O)[C@H](CC(=O)O)NC(=O)[C@H](Cc3ccc(O)cc3)NC(=O)[C@H]([C@@H](C)O)NC(=O)CSC[C@@H](C(=O)N[C@@H](CCN)C(=O)NCCOCCOCC(=O)NCCCCCCCCCCCC(=O)O)NC(=O)[C@H](CCC(=O)O)NC(=O)[C@H](C(C)C)NC(=O)[C@H](CC3CCCCC3)NC(=O)[C@H](CCN)NC(=O)[C@@H](CC(C)C)NC(=O)[C@H](C)N(C)C(=O)[C@H](Cc3ccc(OCC(=O)O)cc3)NC(=O)[C@H](Cc3ccc(-c4ccccc4)cc3)NC(=O)[C@H](Cc3ccc(OCC(=O)O)cc3)NC2=O)c1 [Example 2667] ({CH2CO}-TYD[Phe(3-Me)]Y(Carboxymethyl)[Bip]Y(Carboxymethyl)[NMeA][dL][Dab][Cha]VEC[Dab][AEEA][12Ado]-OH; thioether N-14)
2,46 nM,Cc1cccc(C[C@@H]2NC(=O)[C@H](CC(=O)O)NC(=O)[C@H](Cc3ccc(C(=O)O)cc3)NC(=O)[C@H](Cc3ccncc3)NC(=O)CSC[C@@H](C(=O)NCCOCCOCC(=O)NCCCCCCCCCCC(=O)O)NC(=O)[C@H](Cc3cnc[nH]3)NC(=O)[C@H](C(C)(C)O)NC(=O)[C@H](CC3CCCCC3)NC(=O)[C@H](CCN)NC(=O)[C@@H](CC(C)C)NC(=O)[C@H](C)N(C)C(=O)[C@H](Cc3ccc(OCC(=O)O)cc3)NC(=O)[C@H](Cc3ccc(-c4ccccc4)cc3)NC(=O)[C@H](Cc3ccc(OCC(=O)O)cc3)NC2=O)c1 [Example 2464] ({CH2CO}-[4Pal][Phe(4-COOH)]D[Phe(3-Me)]Y(Carboxymethyl)[Bip]Y(Carboxymethyl)[NMeA][dL][Dab][Cha][Val(3-OH)]HC[AEEA][Aun]-OH; thioether N-14)
3,200 nM,Cc1cccc(C[C@@H]2NC(=O)[C@H](CC(=O)O)NC(=O)[C@H](Cc3ccc(OCC(=O)O)cc3)NC(=O)[C@H]([C@@H](C)O)NC(=O)CSC[C@@H](C(=O)N[C@@H](CCN)C(=O)NCCOCCOCC(=O)NCCCCCCCCCCCC(=O)O)NC(=O)C3(CC3)NC(=O)[C@H](C(C)C)NC(=O)[C@H](CC3CCCCC3)NC(=O)[C@H](CCN)NC(=O)[C@@H](CC(C)C)NC(=O)[C@H](C)N(C)C(=O)[C@H](Cc3ccc(OCC(=O)O)cc3)NC(=O)[C@H](Cc3ccc(-c4ccccc4)cc3)NC(=O)[C@H](Cc3ccc(OCC(=O)O)cc3)NC2=O)c1 [Example 2672] ({CH2CO}-TY(Carboxymethyl)D[Phe(3-Me)]Y(Carboxymethyl)[Bip]Y(Carboxymethyl)[NMeA][dL][Dab][Cha]V[Ac3c]C[Dab][AEEA][12Ado]-OH; thioether N-14)
